{
  "source": "patent US5633016A",
  "about": "“Combination chemotherapy” (SmithKline Beecham Corporation, priority 1995, dated 1997)",
  "key": {"[1]": {"assay_type": "physicochemical", "details": "plastic bags, room temperature", "method": "Stability - Shelf life surveillance of the intact vials is ongoing. Because the single-use lyophilized dosage form contains no antibacterial preservatives, it is advised that the reconstituted solution be discarded eight hours after initial entry into the vial. Further dilutions of the reconstituted solution to concentrations of 0.02 mg/ml and 0.1 mg. ml in 5% Dextrose Injection, USP, (\"D5W\") or 0.9% Sodium Chloride Injection, USP, (\"NS\") in plastic bags stored at room temperature yielded the following stability results:\nPercentage of Initial Topotecan Remaining in Solution"}, "[2]": {"assay_type": "physicochemical", "details": "hang-bag, 24 hours", "method": "Topotecan diluted in saline (10 ug/ml or 500 ug/ml) or dextrose (6.7 ug/ml or 330 ug/ml) is stable in a hang-bag for 24 hours with at least 95% recovery."}, "[3]": {"system": "DNA topoisomerase I", "details": "background statement; cited from earlier work"}, "[4]": {"system": "ovarian cancer", "details": "humans, sole chemotherapeutic agent; cited from earlier work"}, "[5]": {"system": "esophageal cancer", "details": "humans, sole chemotherapeutic agent; cited from earlier work"}, "[6]": {"system": "non-small cell lung carcinoma", "details": "humans, sole chemotherapeutic agent; cited from earlier work"}, "[7]": {"details": "in words; cited from earlier work"}},
  "note": "Like-named read-outs stand apart in the source and are kept apart here.",
  "data": [
    {"compound": "CC[C@@]1(O)C(=O)OCc2c1cc1n(c2=O)Cc2cc3c(CN(C)C)c(O)ccc3nc2-1", "note": "[Topotecan, (S)-10[(dimethylamino)methyl]-4-ethyl-4,9-dihydroxy-IH-pyrano[3',4':6,7]indolizino[1,2-b]quinolone-3,14(4H,12H)-dione]", "values": [
      {"measurement": "Percentage of Initial Topotecan Remaining in Solution", "setting": "[1]; D5W (5% Dextrose Injection, USP), 0.02 mg/ml, 0 hrs", "value": 100.00, "unit": "Percentage"},
      {"measurement": "Percentage of Initial Topotecan Remaining in Solution", "setting": "[1]; D5W (5% Dextrose Injection, USP), 0.1 mg/ml, 0 hrs", "value": 100.00, "unit": "Percentage"},
      {"measurement": "Percentage of Initial Topotecan Remaining in Solution", "setting": "[1]; NS (0.9% Sodium Chloride Injection, USP), 0.02 mg/ml, 0 hrs", "value": 100.00, "unit": "Percentage"},
      {"measurement": "Percentage of Initial Topotecan Remaining in Solution", "setting": "[1]; NS (0.9% Sodium Chloride Injection, USP), 0.1 mg/ml, 0 hrs", "value": 100.00, "unit": "Percentage"},
      {"measurement": "Percentage of Initial Topotecan Remaining in Solution", "setting": "[1]; NS (0.9% Sodium Chloride Injection, USP), 0.1 mg/ml, 6 hrs", "value": 97.71, "unit": "Percentage"},
      {"measurement": "Percentage of Initial Topotecan Remaining in Solution", "setting": "[1]; NS (0.9% Sodium Chloride Injection, USP), 0.1 mg/ml, 24 hrs", "value": 98.30, "unit": "Percentage"},
      {"measurement": "Percentage of Initial Topotecan Remaining in Solution", "setting": "[1]; NS (0.9% Sodium Chloride Injection, USP), 0.1 mg/ml, 48 hrs", "value": 98.35, "unit": "Percentage"},
      {"measurement": "recovery", "setting": "[2]; dextrose (6.7 ug/ml or 330 ug/ml)", "value": "at least 95%"},
      {"measurement": "recovery", "setting": "[2]; saline (10 ug/ml or 500 ug/ml)", "value": "at least 95%"},
      {"measurement": "inhibition of DNA topoisomerase I", "setting": "[3]", "value": "specific inhibitor of DNA topoisomerase I"},
      {"measurement": "clinical efficacy", "setting": "[4]", "value": "shown clinical efficacy"},
      {"measurement": "clinical efficacy", "setting": "[5]", "value": "shown clinical efficacy"},
      {"measurement": "clinical efficacy", "setting": "[6]", "value": "shown clinical efficacy"},
      {"measurement": "water solubility", "setting": "[7]", "value": "water-soluble"}
    ]}
  ]
}
